Values quoted from earlier work as cited in publication PMC8583936, “Machine Learning Assisted Approach for Finding Novel High Activity Agonists of Human Ectopic Olfactory Receptors” (International Journal of Molecular Sciences, 2021).
Like-named read-outs stand apart in the source and are kept apart here.

Key:
OR1A1 = biological target: T1, OR1A1 (Homo sapiens, UniProt Q9P1Q5); details: cited from earlier work
T1 sequence (Q9P1Q5 1-309): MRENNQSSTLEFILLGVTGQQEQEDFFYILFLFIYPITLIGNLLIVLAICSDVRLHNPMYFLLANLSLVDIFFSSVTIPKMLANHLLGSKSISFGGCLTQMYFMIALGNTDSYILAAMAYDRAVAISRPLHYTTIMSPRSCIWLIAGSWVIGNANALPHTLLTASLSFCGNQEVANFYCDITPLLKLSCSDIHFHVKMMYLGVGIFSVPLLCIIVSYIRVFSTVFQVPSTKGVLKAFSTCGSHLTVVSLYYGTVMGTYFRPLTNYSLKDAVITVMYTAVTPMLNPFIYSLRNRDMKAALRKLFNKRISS

OR2W1 = biological target: T2, OR2W1 (Homo sapiens, UniProt Q9Y3N9); details: cited from earlier work
T2 sequence (Q9Y3N9 1-320): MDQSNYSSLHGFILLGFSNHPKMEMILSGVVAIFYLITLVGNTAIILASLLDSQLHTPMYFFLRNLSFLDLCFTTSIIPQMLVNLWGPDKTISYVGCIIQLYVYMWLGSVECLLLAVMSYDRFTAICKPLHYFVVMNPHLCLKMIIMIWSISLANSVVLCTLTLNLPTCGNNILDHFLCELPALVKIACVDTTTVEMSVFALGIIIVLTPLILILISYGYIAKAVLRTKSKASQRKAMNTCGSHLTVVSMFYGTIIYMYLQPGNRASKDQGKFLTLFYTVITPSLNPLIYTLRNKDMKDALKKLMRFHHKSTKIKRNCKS

[1] = Table S1, ref Supplement references [1]-[9] as printed after each odorant name
[2] = Table S2, ref Supplement references [2]-[12] as printed after each odorant name

| Compound | Class (agonist / non-agonist / conflicting info.) for OR1A1 (OR1A1; [1]) | Class (agonist / non-agonist / antagonist / conflicting info.) for OR2W1 (OR2W1; [2]) | Class (agonist / non-agonist / conflicting info.) for OR1A1 (OR1A1; Table S1, ref Supplement references [1]-[9] as printed after each odorant name, listed as (R)-limonene) | Class (agonist / non-agonist / conflicting info.) for OR1A1 (OR1A1) | Class (agonist / non-agonist / antagonist / conflicting info.) for OR2W1 (OR2W1) |
| --- | --- | --- | --- | --- | --- |
| c1ccc2ncccc2c1 [Quinoline] | Agonist | Non-agonist | – | – | – |
| C=C(C)[C@H]1CC=C(C)CC1 [R-limonene] | Agonist | Agonist | agonists | – | – |
| CC(C)=CC1CC(C)CCO1 (stereo not drawn) [Rose oxide] | Non-agonist | Non-agonist | – | – | – |
| CC1=CCC(C(C)(C)O)CC1 (stereo not drawn) [Terpineol] | Conflicting info. | Conflicting info. | – | – | – |
| CC(=O)OC(C)(C)C1CC=C(C)CC1 (stereo not drawn) [Terpinyl acetate] | Conflicting info. | Conflicting info. | – | – | – |
| CCC(=O)OC(C)(C)C [Tert-Butyl propionate] | Non-agonist | Non-agonist | – | – | – |
| SCc1cccs1 [Thenyl mercaptan] | Non-agonist | Non-agonist | – | – | – |
| O=C(O)CS [Thioglycolic acid] | Non-agonist | Non-agonist | – | – | – |
| C/C=C/c1ccc(OC)cc1 [Trans-anethole] | Agonist | Agonist | – | – | – |
| Cc1cnc(C)c(C)n1 [Trimethyl pyrazine] | Non-agonist | Non-agonist | – | – | – |
| CCCCC(=O)O [Valeric acid] | Non-agonist | Non-agonist | – | – | – |
| COc1cc(C(=O)O)ccc1O [Vanillic acid] | Non-agonist | Non-agonist | – | – | – |
| COc1cc(C=O)ccc1O [Vanillin] | Non-agonist | Conflicting info. | – | – | – |
| CCCCC/C=C\CCC=O [Z-4-decenal] | Conflicting info. | Non-agonist | – | – | – |
| CC(=O)/C=C/C1=C(C)CCCC1(C)C [Β-ionone] | Non-agonist | Non-agonist | – | – | – |
| CCC1CCC(=O)O1 (stereo not drawn) [Γ-caprolactone] | – | – | – | Non-agonist | Non-agonist |
| (+)-Fenchone | Non-agonist | Non-agonist | – | – | – |
| (+)-alpha-Pinene | Non-agonist | Non-agonist | – | – | – |
| (+)-beta-Pinene | Non-agonist | Non-agonist | – | – | – |
| (-)-Fenchone | Non-agonist | Non-agonist | – | – | – |
| (-)-alpha-Terpineol | Non-agonist | Non-agonist | – | – | – |
| (S)-(-)-citronellol | – | – | – | Agonist | Agonist |
| (S)-(-)-limonene | agonists | Agonist | – | – | – |
| Caramel furanone | Non-agonist | Non-agonist | – | – | – |
| Coffee difuran | Conflicting info. | Agonist | – | – | – |
| Ethyl 3-methylthiopropionate | Non-agonist | Non-agonist | – | – | – |
| Isoeugenol | – | – | – | Non-agonist | Non-agonist |
| Laevo-arabinose | Conflicting info. | Non-agonist | – | – | – |
